Test system: 276233-004-R-J1-PDC KRAS spheroids with HUVEC/MSC, viability
Test: Anticancer human tumor 276233-004-R-J1-PDC patient-derived colon adenocarcinoma cell line growth inhibition [KRAS2]
Conditions: for IC50: curve of first compound; for viability, T/C: stronger effect = lower value
How it was run: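 Combination screen of spheroid viability in tumor-cell co-cultures with endothelial (HUVEC) and mesenchymal stem cell stroma. Each agent was tested in half-log dilutions, topping at clinical Cmax or at 10 microM without a known Cmax.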

[1] = second compound 0.1 µM, first compound 0.0316 µM
[2] = second compound 0.1 µM, first compound 0.1 µM
[3] = second compound 0.1 µM, first compound 0.316 µM
[4] = second compound 0.1 µM, first compound 1 µM
[5] = second compound 0.1 µM, first compound 3.16 µM
[6] = second compound 0.1 µM, first compound 10 µM
[7] = second compound 0.316 µM, first compound 0.0316 µM
[8] = second compound 0.316 µM, first compound 0.1 µM
[9] = second compound 0.316 µM, first compound 0.316 µM
[10] = second compound 0.316 µM, first compound 1 µM
[11] = second compound 0.316 µM, first compound 3.16 µM
[12] = second compound 0.316 µM, first compound 10 µM
[13] = second compound 1 µM, first compound 0.0316 µM
[14] = second compound 1 µM, first compound 0.1 µM
[15] = second compound 1 µM, first compound 0.316 µM
[16] = second compound 1 µM, first compound 1 µM
[17] = second compound 1 µM, first compound 3.16 µM
[18] = second compound 1 µM, first compound 10 µM
[19] = second compound 3.16 µM, first compound 0.0316 µM
[20] = second compound 3.16 µM, first compound 0.1 µM
[21] = second compound 3.16 µM, first compound 0.316 µM
[22] = second compound 3.16 µM, first compound 1 µM
[23] = second compound 3.16 µM, first compound 3.16 µM
[24] = second compound 3.16 µM, first compound 10 µM
[25] = second compound 10 µM, first compound 0.0316 µM
[26] = second compound 10 µM, first compound 0.1 µM
[27] = second compound 10 µM, first compound 0.316 µM
[28] = second compound 10 µM, first compound 1 µM
[29] = second compound 10 µM, first compound 3.16 µM
[30] = second compound 10 µM, first compound 10 µM
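Further: cells exposed to agents for seven days before viability read.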
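Wherever viability, T/C is given: 100% = DMSO vehicle control wells and lower values mean fewer viable cells.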

COc1cc(Nc2ncc3c(n2)-c2ccc(Cl)cc2C(c2c(F)cccc2OC)=NC3)ccc1C(=O)O + CNCc1ccccc1-c1csc(C(C)Nc2nc(C)nc3cc(OC)c(OC)cc23)c1
IC50 (second compound 0.1 µM): > 10000 nM | IC50 (second compound 0.316 µM): > 10000 nM | IC50 (second compound 1 µM): > 10000 nM | IC50 (second compound 3.16 µM): < 31.6 nM | IC50 (second compound 10 µM): < 31.6 nM | viability, T/C [1]: 103% | viability, T/C [2]: 110% | viability, T/C [3]: 75.7% | viability, T/C [4]: 104% | viability, T/C [5]: 95.7% | viability, T/C [6]: 84.2% | viability, T/C [7]: 107% | viability, T/C [8]: 93% | viability, T/C [9]: 99.1% | viability, T/C [10]: 97.7% | viability, T/C [11]: 91.9% | viability, T/C [12]: 94.6% | viability, T/C [13]: 80.4% | viability, T/C [14]: 86.1% | viability, T/C [15]: 111% | viability, T/C [16]: 85% | viability, T/C [17]: 72.1% | viability, T/C [18]: 66.3% | viability, T/C [19]: 5.21% | viability, T/C [20]: 1.97% | viability, T/C [21]: 1.67% | viability, T/C [22]: 4.48% | viability, T/C [23]: 4.94% | viability, T/C [24]: 0.76% | viability, T/C [25]: 2.44% | viability, T/C [26]: 3.58% | viability, T/C [27]: 0.22% | viability, T/C [28]: 0.22% | viability, T/C [29]: 0.73% | viability, T/C [30]: 0.99%

CC(=O)Nc1cccc(-n2c(=O)n(C3CC3)c(=O)c3c(Nc4ccc(I)cc4F)n(C)c(=O)c(C)c32)c1 + CC1OCC2(CCN(c3cnc(Sc4ccnc(N)c4Cl)c(N)n3)CC2)C1N
IC50 (second compound 0.1 µM): 4.28 nM | IC50 (second compound 0.316 µM): 2.46 nM | IC50 (second compound 1 µM): 0.405 nM | IC50 (second compound 3.16 µM): < 0.1 nM | IC50 (second compound 10 µM): < 0.1 nM | viability, T/C (second compound 0.1 µM, first compound 0.0001 µM): 78.4% | viability, T/C (second compound 0.1 µM, first compound 0.000316 µM): 87.2% | viability, T/C (second compound 0.1 µM, first compound 0.001 µM): 65.8% | viability, T/C (second compound 0.1 µM, first compound 0.00316 µM): 55.5% | viability, T/C (second compound 0.1 µM, first compound 0.01 µM): 35.6% | viability, T/C [1]: 13.1% | viability, T/C (second compound 0.316 µM, first compound 0.0001 µM): 67% | viability, T/C (second compound 0.316 µM, first compound 0.000316 µM): 74.1% | viability, T/C (second compound 0.316 µM, first compound 0.001 µM): 61% | viability, T/C (second compound 0.316 µM, first compound 0.00316 µM): 45.5% | viability, T/C (second compound 0.316 µM, first compound 0.01 µM): 28% | viability, T/C [7]: 13.5% | viability, T/C (second compound 1 µM, first compound 0.0001 µM): 57.4% | viability, T/C (second compound 1 µM, first compound 0.000316 µM): 55.4% | viability, T/C (second compound 1 µM, first compound 0.001 µM): 42.6% | viability, T/C (second compound 1 µM, first compound 0.00316 µM): 28.4% | viability, T/C (second compound 1 µM, first compound 0.01 µM): 27.4% | viability, T/C [13]: 7.28% | viability, T/C (second compound 3.16 µM, first compound 0.0001 µM): 39.7% | viability, T/C (second compound 3.16 µM, first compound 0.000316 µM): 31.9% | viability, T/C (second compound 3.16 µM, first compound 0.001 µM): 23.3% | viability, T/C (second compound 3.16 µM, first compound 0.00316 µM): 12.7% | viability, T/C (second compound 3.16 µM, first compound 0.01 µM): 9.04% | viability, T/C [19]: 5.79% | viability, T/C (second compound 10 µM, first compound 0.0001 µM): 31.4% | viability, T/C (second compound 10 µM, first compound 0.000316 µM): 23.7% | viability, T/C (second compound 10 µM, first compound 0.001 µM): 14.7% | viability, T/C (second compound 10 µM, first compound 0.00316 µM): 10.9% | viability, T/C (second compound 10 µM, first compound 0.01 µM): 17.6% | viability, T/C [25]: 8.53%

COc1cc2nccc(Oc3ccc(NC(=O)C4(C(=O)Nc5ccc(F)cc5)CC4)cc3)c2cc1OC + CNCc1ccccc1-c1csc(C(C)Nc2nc(C)nc3cc(OC)c(OC)cc23)c1
IC50 (second compound 0.1 µM): > 10000 nM | IC50 (second compound 0.316 µM): > 10000 nM | IC50 (second compound 1 µM): 595 nM | IC50 (second compound 3.16 µM): < 31.6 nM | IC50 (second compound 10 µM): < 31.6 nM | viability, T/C [1]: 82.3% | viability, T/C [2]: 109% | viability, T/C [3]: 82.8% | viability, T/C [4]: 88.3% | viability, T/C [5]: 80.9% | viability, T/C [6]: 88.2% | viability, T/C [7]: 83.3% | viability, T/C [8]: 85% | viability, T/C [9]: 85.8% | viability, T/C [10]: 109% | viability, T/C [11]: 83.2% | viability, T/C [12]: 67.2% | viability, T/C [13]: 74.8% | viability, T/C [14]: 58.8% | viability, T/C [15]: 68.7% | viability, T/C [16]: 35.6% | viability, T/C [17]: 15% | viability, T/C [18]: 41.5% | viability, T/C [19]: 0.61% | viability, T/C [20]: 2.67% | viability, T/C [21]: 0.63% | viability, T/C [22]: 0.45% | viability, T/C [23]: 0.77% | viability, T/C [24]: 0.33% | viability, T/C [25]: 0.64% | viability, T/C [26]: 0.19% | viability, T/C [27]: 0.57% | viability, T/C [28]: 0.15% | viability, T/C [29]: 0.14% | viability, T/C [30]: 1.46%

From PubChem BioAssay AID1963873 (Molecular Pharmacology Branch, DTP, NCI, 2024)
